Test results: patent EP4549446A1 (priority 2023, dated 2025)

Legend:
Nrf2 = test: Nrf2-ARE induction, luciferase assay in AREc32 cells; type: cell-based; details: CD: concentration required to double the specific activity of the luciferase gene, 24 h treatment
AML cell lines = type: cell-based, human
[1] = SFNA/αCD association constant by 1H NMR titration in D2O; type: physicochemical; details: 298 K, SFNA 2 mM against increasing α-cyclodextrin
Procedure: The preparation of inclusion complexes was carried out by a physical mixture in water between α-cyclodextrin (host) and the sulforaphane analogue (guest; SFNA). The confirmation of complex formation, its stoichiometry, association constant (Kas), and degree of degradation were determined using ^1H NMR spectroscopy.
Determination of the SFNA/αCD association constant. The determination of association constants (Kas, M^-1) for the SFNA/αCD complex was performed through ^1H NMR titration experiments in D2O. The association constants at 298 K were experimentally determined by measuring the changes in chemical shift (Δδ, ppm) of the ^1H NMR signals using fixed solutions of the analogues against increasing concentrations of α-cyclodextrin. In a typical titration experiment, a 2 mM solution of the SFN analogue in D2O was prepared, and a 500 µL aliquot was transferred to the NMR tube, and the initial spectrum was recorded. Furthermore, a solution of a mixture (SFNA at 2 mM/ αCD at 16.11 mM) was prepared and added in 10 µL aliquots to the NMR tube, keeping the analogue concentration constant. The added amounts of α-cyclodextrin were increased until complete complexation of the analogue, and ^1H NMR spectra were recorded after each addition. The mathematical treatment of the curves of chemical shift variations of the analogue proton signals (Δδ) against increasing α-cyclodextrin concentrations using an iterative least-squares fitting procedure allowed for the determination of the Kas values for the analogues (Table 1).

[2] = test system: normal cell subpopulations from healthy donors; test: Ex vivo cell viability by flow cytometry on normal cells; type: cell-based, human; details: normal cell subpopulations from healthy donors including hematopoietic precursor cells, 18 h
Procedure: Primary human cells from healthy donors were used in ex vivo assays. The mononuclear fraction was extracted with Ficoll-Paque by density gradient centrifugation and subsequently differentiated from the other cell populations by flow cytometry using an appropriate combination of antibodies: anti-human CD45-Pacific Blue, CD34-FITC, CD19-APC-H7 (BD Biosciences, San Jose, CA) and CD3-FITC (Invitrogen).
Cell viability and cell lysis were also assessed by annexin V/7-AAD using flow cytometry. Donor cells were analysed using 7-AAD a combination of monoclonal antibodies (anti-CD45-Pacific Blue, anti-CD34-FITC, anti-CD3-FITC, anti-CD19-APC-H7). The cells were acquired with the FACSCanto II flow cytometer (BD Biosciences) and analysed with the Infinicyt™ software (Cytognos, Spain).

Structure (SMILES) | EC (2-fold) (Nrf2; read-out: CD ± SEM) [µM] | proapoptotic effect on AML cell lines (AML cell lines) | Kas [1] | CD ± SEM (Nrf2) [µM] | viability of normal healthy cells [2]
C[S+]([O-])CCCCN=C=S (stereo not shown) [SFN-1, sulforaphane, reference compound] | 0.44 ± 0.28 |  |  |  | 
CCOP(=O)(CCCCN=C=S)OCC [SFN-14, Diethyl (4-isothiocyanatobutyl)phosphonate] |  | partially selective proapoptotic effect | 135,95 M^-1 |  | 
CCOP(=O)(OCC)OCCCN=C=S [SFN-10, Diethyl (3-isothiocyanatopropyl) phosphate] |  | partially selective proapoptotic effect | 34,87 M^-1 | 0.56 ± 0.07 | not affected
O=P(OCCCN=C=S)(Oc1ccccc1)Oc1ccccc1 [SFN-16, Diphenyl 3-isothiocyanatopropyl phosphate] |  |  |  | 1.55 ± 0.45 | 
CC(C)OP(=O)(OCCCN=C=S)OC(C)C [SFN-15, Diisopropyl (3-isothiocyanatopropyl) phosphate] |  |  | 101,95 M^-1 | 0.52 ± 0.08 | 
